Data taken from US20110293746A1, “Modulation of Gsk-3Beta and Method of Treating Proliferative Disorders” (Agency For Science, Technology and Research, priority 2004, published 2011).
“Also recorded” adds a separate entry of the source.

Experiments:
Format in all cases: cell-based, Human
[1] = system: RKO cells; assay: FACS apoptosis (sub-G1); settings: p53 wild-type, with ADR
Procedure: (§1) Cell culture and drug treatments: Human colon cancer cell line HCT116 and its derived isogenic p53^−/−, Puma^−/−, Bax^−/− and p53-inducible DLD cell lines were kindly provided by Dr. Bert Vogelstein (Johns Hopkins University, MD). RKO and RKO/E6 cells were from ATCC. Cells were cultured in DMEM containing 10% FBS. All culture reagents and media were from Invitrogen. 5-Fluorouracil, Adriamycin, etoposide and lithium chloride were purchased from Sigma. GSK-3β specific small molecule inhibitor LY2119301 was a gift from Eli Lilly (Indianapolis) and SB-216763, SB-415283 were obtained from BIOMOL.
(§2) FACS analysis of DNA content and caspase-3 activity: Cells were harvested and fixed in 70% ethanol. Fixed cells were stained with propidium iodide (50 μg/ml) after treatment with RNase (100 μg/ml). The stained cells were analyzed for DNA content by fluorescence-activated cell sorting (FACS) in a FACScalibur™ (Becton Dickinson Instrument, San Jose, Calif.). Cell cycle fractions were quantified using the CellQues™ software (Becton Dickinson). To measure caspase-3 activity, cells were fixed with Cytofix/Cytoperm™ solution (BD PharMingen) as instructed, and then stained with FITC-conjugated rabbit anti-active caspase-3 monoclonal antibody (BD PharMingen). Quantification of cells positive for the caspase-3 detection was performed by flow cytometry.

[2] = system: RKO/E6 cells; assay: FACS apoptosis (sub-G1); settings: p53-inactive, with ADR
Procedure: as §1, §2

[3] = system: HT29; assay: Apoptosis in p53 mutant colon cancer cell line; settings: data not shown
Procedure: as §2

[4] = system: SW480; assay: Apoptosis in p53 mutant colon cancer cell line; settings: data not shown
Procedure: as §2

[5] = system: p53 and p53 targets in HCT116 cells; assay: Immunoblot analyses of p53 and p53 targets
Procedure: (§3) Western blotting, immunoprecipitation and microarray analysis: Cells were scraped, collected and lysed as described previously (Yu, Q., et al. Cancer Res, 62: 5743-5748, 2002). Briefly, cells were lysed with cell lysis buffer (0.3% NP40, 1 mM EDTA, 50 mM Tris-HCl (pH 7.4), 2 mM EGTA, 1% Triton X-100, […], 25 mM NaF, 1 mM Na3VO4, 2 mM AEBSF, 5 μg/ml aprotinin, 1 μg/ml leupeptin) for 30 minutes on ice, and the lysates were clarified by centrifugation at 12,000×g for 15 minutes at 4° C. Protein concentration was quantified (Bio-Rad, Hercules, Calif.) and protein samples (50 μg) were separated by SDS/PAGE and transferred onto Immobilon™ membranes (Millipore, Bedford, Mass.). Antibodies against the following proteins were used: p53 (DO-1), p21, PARP, GSK-α/β, α-Tubulin, and β-actin (Santa Cruz Biotechnology), Puma (Ab-1, Oncogene), Bax (Sigma), phosphor-(Ser9/21)-GSK-3α/β and Caspase-9 (Cell Signaling Technologies), phosphor-(Tyr216/279)-GSK-3α/β (Upstate Biotechnologies), cytochrome c (BD PharMingen). To detect Bax conformational change, cells were lysed in 1% Chaps buffer and the soluble fraction was immunoprecipitated with anti-Bax monoclonal antibody (6A7, BD, PharMingen), followed by immunoblotting with anti-Bax polyclonal antibody. Microarray analysis was performed as described (Kho, P. S., et al. J Biol Chem, 279: 21183-21192, 2004).

[6] = system: p53-responsive genes in HCT116; assay: Microarray analysis of p53-responsive genes; settings: concurrent treatment with ADR and LY2119301
Procedure: as §3

[7] = system: p53-inducible DLD1 cells; assay: Apoptosis and immunoblot in tetracycline-inducible p53 expressing cells
Procedure: as §1, §3, §2

[8] = system: HCT116 cells infected with Ad-p53; assay: Apoptosis and immunoblot in cells infected with adenovirus expressing p53
Procedure: as §3, §2
Adenoviral infections: Adenovirus Ad-LacZ and Ad-p53 were obtained from Dr. Shibin Zhou (Johns Hopkins University, Md.). Cells were grown to 50% confluence and infected with recombinant adenovirus as described (Yu, J., et al. Proc Natl Acad Sci USA, 96: 14517-14522, 1999). Twenty-four hours after the infection, cells were treated with drugs for the indicated times.

[9] = system: HCT116 Bax −/− cells; assay: FACS apoptosis and immunoblot
Procedure: as §1, §3, §2

[10] = system: HCT116 Puma −/− cells; assay: FACS apoptosis and immunoblot
Procedure: as §1, §3, §2

[11] = system: LoVo cells; assay: Apoptosis upon DNA damage; settings: p53 wild-type, no Bax protein; data not shown
[12] = system: Bax; assay: Bax conformational activation (IP with 6A7 antibody, Western blot); settings: co-treatment with LY2119301 and ADR, etoposide or 5-FU, 24 h
Procedure: as §3

[13] = system: Bax; assay: Bax conformational activation (IP with 6A7 antibody, Western blot) in HCT116 p53 −/− cells; settings: same conditions
Procedure: as §3

[14] = with ADR, etoposide or 5-FU, HCT116 (LY2119301 also RKO)
[15] = LY2119301 with ADR or etoposide
[16] = co-treated with LY2119301 and ADR or etoposide, 24 h

## CN1CCN(c2ccc(NCCNc3ccc([N+](=O)[O-])c(N)n3)nc2-c2ccc(Cl)cc2Cl)C(=O)C1 [LY2119301]
[1]
  apoptotic effect on the p53 response: observed
[2]
  apoptotic effect on the p53 response: not
[3]
  apoptosis induction: not induced
[4]
  apoptosis induction: not induced
[5]; HCT116 and RKO
  Bax levels: no effect
[5]; cells treated with genotoxic agents
  cleavage of PARP: remarkably increased
[5]; [14]
  p53-mediated p21 induction: prevents; also recorded: impaired
  p53 accumulation / stability in response to DNA damage: prevents; also recorded: markedly and consistently impaired
[5]; with chemotherapeutic agents, HCT116 and RKO
  induction of Puma: impaired
[6]
  induction of p53 responsive genes: uniformly attenuated
[7]; IP-Western, p53 induction plus LY2119301
  Bax activation: similarly seen
[7]; Western blot
  ectopically expressed p53 protein levels: no effect
  p53 dependent transcription of p21: no effect
[7]; in the presence of LY2119301
  apoptosis induced by enforced p53 expression: significantly increased
[8]; IP-Western, p53 over-expression plus LY2119301
  Bax activation: similarly seen
[8]; LY2119301 24 h
  apoptosis induced by enforced p53 expression: significantly increased
[8]; immunoblot
  ectopically expressed p53 protein levels: no effect
  p53 dependent transcription of p21: no effect
[9]; [15]
  PARP cleavage: not observed
[9]; [16]
  apoptosis: completely refractory
[9]; immunoblot
  induction of p21 after ADR or etoposide: similarly reduced
  p53 accumulation after ADR or etoposide: similarly reduced
[10]; [15]
  PARP cleavage: evident
[10]; [16]
  apoptosis: marked apoptosis
[10]; immunoblot
  induction of p21 after ADR or etoposide: similarly reduced
  p53 accumulation after ADR or etoposide: similarly reduced
[11]
  apoptosis induced by LY2119301 upon DNA damage: resistant
[12]
  levels of conformationally active Bax: dramatically increased
[13]
  Bax conformation: no detectable change
